Reference: patent publication US20110009628A1, “Compounds and Compositions for Modulating Lipid Levels and Methods of Preparing Same” (priority 2009, published 2011)
Counter-ions that a name gives are not always drawn. Like-named read-outs stand apart in the source and are kept apart here.

Assays:
[1] = Pharmacokinetics of Compound 141 in male Wistar rats, intravenous and oral; type: in vivo; settings: for MRT last: read-out: MRT(0-t); for MRT inf: read-out: MRT(0-∞)
Description: For intravenous administration, blood samples were collected via retro-orbital puncture into heparinized tubes at pre-dose and 0.083, 0.25, 0.5, 1, 2, 6, 8, and 24 hours (hr) post-dose.
For oral administration, blood samples were collected at following time points: 0, 0.167, 0.417, 0.75, 1, 2, 4, 6, 8, and 24 hr. After sample collection, plasma samples were stored at −20° C. until bioanalysis. Concentrations of 72(+) and 72(−) in plasma samples were determined using a high performance liquid chromatography/mass spectrometry (HPLC/MS/MS) method.
*F(%)=(Doseiv×AUCoral(0-t))/(Doseoral×AUCiv(0-t))×100%. […]
The pharmacokinetic profile and bioavailability of Compound 141 (phosphate salt of Compound 127) in male Wistar rats following single intravenous (iv) and oral administration (p.o.) were measured according to the procedures of Example 4 and are summarized in Table 11. The pharmacokinetic profile of Compound 162 in male Golden Syrian masters following oral administration (pox) is summarized in Table 12.

[2] = test system: PCSK9 mRNA expression in HepG2 cells; assay: PCSK9 mRNA expression in HepG2 cells, quantitative real-time RT-PCR (Example 12); type: cell-based, human; settings: 24 hours
Description: (§1) The effects of compounds on the mRNA expressions of LDLR and PCSK9 were examined using quantitative real-time RT-PCR assays. HepG2 cells were treated with various compounds at 10 and 40 uM concentrations for 24 hours. Total RNA was isolated and […] was used to generate cDNA in a reaction containing random primers and M-MLV at 37° C. for 1 h in a volume of 25 μL. Real-time PCR was performed on the cDNA using MCEP REALPLEX 2 SYSTEM (Eppendorf) and Universal MasterMix (Applied Biosystems). Human LDLR, PCSK9, and GAPDH Pre-Developed TaqMan Assay Reagents (Applied Biosystems) were used to assess the levels of mRNA expressions in HepG2. The levels of LDLR and PCSK9 mRNA were normalized to that of GAPDH. Each RNA samples was assayed in duplicate. The fold activity was calculated by dividing mRNA abundance in compound treated cells with that of control.

[3] = test system: LDLR mRNA expression in HepG2 cells; assay: LDLR mRNA expression in HepG2 cells, quantitative real-time RT-PCR (Example 12); type: cell-based, human; settings: Homo sapiens, 24 hours; for fold induction at 10 µM: read-out: Activity on LDLR mRNA at 10 uM (fold of control); for fold induction at 40 µM: read-out: Activity on LDLR mRNA at 40 uM (fold of control)
Description: as §1

[4] = test system: LDL ligand uptake activity in HepG2 cells; assay: DiI-LDL uptake in HepG2 cells (Example 12); type: cell-based, human
Description: The combined beneficial effects of these novel compounds on elevation of LDLR mRNA levels likely through the mechanism of mRNA stabilization and their inhibitory activity towards PCSK9, the secreted protease that degrades LDLR protein, result in strong increases in LDL ligand uptake activity through increased receptor surface abundance. […] Briefly, HepG2 cells (2×10^5 cells/well) in 24-well culture plates were treated with various compounds at 10 and 40 uM concentrations for 20 hours. The fluorescent 1.1′-dioctadecyl-3,3,3′,3′-tetramethylindocarbocyanin perchlorate (DiI-LDL) (Biomedical Technologies, Stoughton, Mass.) at a concentration of 2 μg/ml was added to cells at the end of treatment. After 4 hours, the medium was removed; cells were washed with cold PBS, and were examined immediately under a fluorescent microscope (Nikon) at 200× amplification. The fluorescent intensity in compound-treated cells was compared to that in untreated control cells. […]

[5] = Wistar, rat, plasma, male rats, IV (2 mg/kg), mean
[6] = Wistar, rat, plasma, male rats, PO (10 mg/kg), mean
[7] = 10 uM, 20 hours (first symbol of cell)
[8] = 40 uM, 20 hours (second symbol of cell)

COc1cc2c(cc1OC)C1Cc3ccc(OC)c(OS(=O)(=O)c4cccc(F)c4)c3CN1CC2 (racemic) [Compound 141, 2,3,10-Trimethoxy-5,6,7,8,13,13a-hexahydroisoquinolino[2,1-b]isoquinolin-9-yl 3-fluorobenzenesulfonate phosphate Salt]
AUC(0-inf) [1, 5]: 1080 ng·h/mL
AUC(0-t) [1, 5]: 1070 ng·h/mL
Cmax [1, 5]: 1550 ng/mL
Tmax [1, 5]: 0.083 h
MRT last [1, 5]: 1.46 h
MRT inf [1, 5]: 1.62 h
Vd ([1]; Wistar, rat, plasma, male rats, IV (2 mg/kg), mean, read-out: Vz): 8.31 L/kg
AUC(0-inf) [1, 6]: 3380 ng·h/mL
AUC(0-t) [1, 6]: 3360 ng·h/mL
Cmax [1, 6]: 826 ng/mL
Tmax [1, 6]: 0.33 h
MRT last [1, 6]: 4.25 h
MRT inf [1, 6]: 4.44 h
pharmacokinetic properties and bioavailability, in words ([1]; male Wistar rats, iv and p.o.): excellent pharmacokinetic properties and good bioavailability
CLz ([1]; male rats, IV (2 mg/kg), mean): 31.2 mL/min/kg
t1/2z ([1]; male rats, IV (2 mg/kg), mean): 3.16 h
F* ([1]; male rats, PO (10 mg/kg) vs IV (2 mg/kg), mean): 62.75%
t1/2z ([1]; male rats, PO (10 mg/kg), mean): 3.62 h

CCOc1ccc2c(c1)CCN1Cc3c(ccc(OC)c3OS(=O)(=O)c3ccccc3)CC21 (stereo not drawn) [Compound 133, 3-Ethoxy-10-methoxy-5,6,7,8,13,13a-hexahydroisoquinolino[2,1-b]isoquinolin-9-yl benzenesulfonate]
PCSK9 mRNA level at 10 uM (fold of control) [2]: 1.04 ± 0.08 fold of control
Activity on PCSK9 mRNA reduction at 40 uM (fold of control) [2]: 0.49 ± 0.01 fold of control
fold induction at 10 µM [3]: 4.92
fold induction at 40 µM [3]: 6.61 ± 0.16
Activity in LDL uptake (relative to control) [4, 7]: ++
Activity in LDL uptake (relative to control) [4, 8]: +

COc1ccc2c(c1)CCN1Cc3c(ccc(OC)c3OS(=O)(=O)c3cccc(F)c3)CC21 (stereo not drawn) [Compound 128, 3,10-Dimethoxy-5,6,7,8,13,13a-hexahydroisoquinolino[2,1-b]isoquinolin-9-yl 3-fluorobenzenesulfonate]
PCSK9 mRNA level at 10 uM (fold of control) [2]: 0.96 ± 0.00 fold of control
Activity on PCSK9 mRNA reduction at 40 uM (fold of control) [2]: 0.86 ± 0.029 fold of control
fold induction at 10 µM [3]: 7.52 ± 0.26
fold induction at 40 µM [3]: 13.4 ± 0.46
Activity in LDL uptake (relative to control) [4, 7]: +++/+++
Activity in LDL uptake (relative to control) [4, 8]: +++/+++

COc1cc2c(cc1OCCO)CCN1Cc3c(ccc(OC)c3OS(=O)(=O)c3ccccc3)CC21 (stereo not drawn) [Compound 138, 3-(2-Hydroxyethoxy)-2,10-dimethoxy-5,6,7,8,13,13a-hexahydroisoquinolino[2,1-b]isoquinolin-9-yl benzenesulfonate]
PCSK9 mRNA level at 10 uM (fold of control) [2]: 0.63 ± 0.14 fold of control
Activity on PCSK9 mRNA reduction at 40 uM (fold of control) [2]: 0.35 ± 0.02 fold of control
fold induction at 10 µM [3]: 1.6 ± 0.29
fold induction at 40 µM [3]: 2.45 ± 0.2
Activity in LDL uptake (relative to control) [4, 7]: +
Activity in LDL uptake (relative to control) [4, 8]: +++

COc1ccc2c(c1OS(=O)(=O)c1cccc(F)c1)CN1CCc3cc4c(cc3C1C2)OCCO4 (stereo not drawn) [Compound 129, 11-Methoxy-6,7,8,9,14,14a-hexahydro-2H,3H-1,4-dioxano[5,6-g]isoquinolino[3,2-a]isoquinolin-10-yl 3-fluorobenzenesulfonate]
PCSK9 mRNA level at 10 uM (fold of control) [2]: 1.57 ± 0.07 fold of control
Activity on PCSK9 mRNA reduction at 40 uM (fold of control) [2]: 1.68 ± 0.41 fold of control
fold induction at 10 µM [3]: 2.49 ± 0.18
fold induction at 40 µM [3]: 1.99 ± 0.13
Activity in LDL uptake (relative to control) [4, 7]: +
Activity in LDL uptake (relative to control) [4, 8]: ++

COc1ccc2c(c1OS(=O)(=O)c1ccccc1)CN1CCc3ccccc3C1C2 (stereo not drawn) [Compound 134, 10-Methoxy-5,6,7,8,13,13a-hexahydroisoquinolino[2,1-b]isoquinolin-9-yl benzenesulfonate]
PCSK9 mRNA level at 10 uM (fold of control) [2]: 1.25 ± 0.03 fold of control
Activity on PCSK9 mRNA reduction at 40 uM (fold of control) [2]: 0.86 ± 0.02 fold of control
fold induction at 10 µM [3]: 1.41 ± 0.07
fold induction at 40 µM [3]: 6.23 ± 0.64
Activity in LDL uptake (relative to control) [4, 8]: +

COc1ccc2c(c1OS(=O)(=O)c1cccc(F)c1)CN1CCc3cc(C)ccc3C1C2 (stereo not drawn) [Compound 130, 10-Methoxy-3-methyl-5,6,7,8,13,13a-hexahydroisoquinolino[2,1-b]isoquinolin-9-yl 3-fluorobenzenesulfonate]
PCSK9 mRNA level at 10 uM (fold of control) [2]: 2.11 ± 0.11 fold of control
Activity on PCSK9 mRNA reduction at 40 uM (fold of control) [2]: 0.84 ± 0.12 fold of control
fold induction at 10 µM [3]: 4.29 ± 0.65
fold induction at 40 µM [3]: 9 ± 1.49
Activity in LDL uptake (relative to control) [4, 7]: ++
Activity in LDL uptake (relative to control) [4, 8]: +

COc1cc2c(cc1C(=O)NCCO)C1Cc3ccc(OC)c(OS(=O)(=O)c4ccccc4)c3CN1CC2 (stereo not drawn) [Compound 137, 2-[N-(2-hydroxyethyl)carbamoyl]-3,10-dimethoxy-5,6,7,8,13,13a-hexahydroisoquinolino[2,1-b]isoquinolin-9-yl benzenesulfonate]
PCSK9 mRNA level at 10 uM (fold of control) [2]: 0.45 ± 0.06 fold of control
Activity on PCSK9 mRNA reduction at 40 uM (fold of control) [2]: 0.34 ± 0.00 fold of control
fold induction at 10 µM [3]: 1.61 ± 0.19
fold induction at 40 µM [3]: 2.66 ± 0.04
Activity in LDL uptake (relative to control) [4, 7]: +
Activity in LDL uptake (relative to control) [4, 8]: +++

COc1cc2c(cc1CO)C1Cc3ccc(OC)c(OS(=O)(=O)c4ccccc4)c3CN1CC2 (stereo not drawn) [Compound 132, 2-(Hydroxymethyl)-3,10-dimethoxy-5,6,7,8,13,13a-hexahydro isoquinolino[2,1-b]isoquinolin-9-yl benzenesulfonate]
PCSK9 mRNA level at 10 uM (fold of control) [2]: 1.85 ± 0.12 fold of control
Activity on PCSK9 mRNA reduction at 40 uM (fold of control) [2]: 0.73 ± 0.15 fold of control
fold induction at 10 µM [3]: 2.33 ± 0.04
fold induction at 40 µM [3]: 6.62 ± 0.9
Activity in LDL uptake (relative to control) [4, 7]: ++
Activity in LDL uptake (relative to control) [4, 8]: +

COc1cc2c(cc1C(=O)N(C)C)C1Cc3ccc(OC)c(OS(=O)(=O)c4ccccc4)c3CN1CC2 (stereo not drawn) [Compound 136, 2-(N,N-dimethylcarbamoyl)-3,10-dimethoxy-5,6,7,8,13,13a-hexahydroisoquinolino[2,1-b]isoquinolin-9-yl benzenesulfonate]
PCSK9 mRNA level at 10 uM (fold of control) [2]: 0.48 ± 0.03 fold of control
Activity on PCSK9 mRNA reduction at 40 uM (fold of control) [2]: 0.62 ± 0.02 fold of control
fold induction at 10 µM [3]: 0.91 ± 0.05
fold induction at 40 µM [3]: 1.92 ± 0.32
Activity in LDL uptake (relative to control) [4, 7]: +
Activity in LDL uptake (relative to control) [4, 8]: ++

COc1ccc2c(c1OS(=O)(=O)c1ccccc1)CN1CCc3cc(OCCO)ccc3C1C2 (stereo not drawn) [Compound 142, 3-(2-Hydroxyethoxy)-10-methoxy-5,6,7,8,13,13a-hexahydroisoquinolino[2,1-b]isoquinolin-9-yl benzenesulfonate]
PCSK9 mRNA level at 10 uM (fold of control) [2]: 0.62 ± 0.07 fold of control
Activity on PCSK9 mRNA reduction at 40 uM (fold of control) [2]: 0.52 ± 0.02 fold of control
fold induction at 10 µM [3]: 2.64 ± 0.01
fold induction at 40 µM [3]: 13 ± 1.96
Activity in LDL uptake (relative to control) [4, 7]: +
Activity in LDL uptake (relative to control) [4, 8]: ++

COc1cc2c(cc1OC)C1Cc3ccc(OC)c(OS(=O)(=O)c4cccc(F)c4)c3CN1CC2 (stereo not drawn) [Compound 127, 2,3,10-Trimethoxy-5,6,7,8,13,13a-hexahydroisoquinolino[2,1-b]isoquinolin-9-yl 3-fluorobenzenesulfonate]
PCSK9 mRNA level at 10 uM (fold of control) [2]: 0.197 ± 0.014 fold of control
Activity on PCSK9 mRNA reduction at 40 uM (fold of control) [2]: 0.192 ± 0.016 fold of control
PCSK9 mRNA expression, in words ([2]; 10 and 40 uM): strongly inhibits PCSK9 expression
fold induction at 10 µM [3]: 1.8 ± 0.13
fold induction at 40 µM [3]: 2.38 ± 0.38
Activity in LDL uptake (relative to control) [4, 7]: +++/+++
Activity in LDL uptake (relative to control) [4, 8]: +++/+++
